Assay results from ChEMBL document CHEMBL3297694, “Naturally occurring polyphenolic inhibitors of amyloid beta aggregation” (Bioorg Med Chem Lett, 2014).
Calls of active or inactive are those of the source. No cut-off for these calls is given here.

Legend:
[1] = molecular target: T1, Amyloid-beta precursor protein (Homo sapiens, UniProt P05067); test: Inhibition of amyloid beta1-42 (unknown origin) aggregation assessed as amyloid fibril formation tested at 1:1 compound to peptide ratio after 17 hrs by thioflavin T fluorescence method; design: scale not given: the % may be the effect or the level left
[2] = molecular target: T1, Amyloid-beta precursor protein; test: Inhibition of amyloid beta1-42 (unknown origin) aggregation assessed as reduction in amyloid fibril formation at 40 uM after 5 days by Transmission electron microscopy
[3] = molecular target: T1, Amyloid-beta precursor protein; test: Inhibition of amyloid beta1-42 (unknown origin) aggregation assessed as amyloid fibril formation tested after 17 hrs by thioflavin T fluorescence method
[4] = molecular target: T1, Amyloid-beta precursor protein; test: Inhibition of amyloid beta1-42 (unknown origin) aggregation assessed as reduction in large aggregates at 100 uM after 20 mins and 24 hrs by dynamic light scattering method
[5] = molecular target: T1, Amyloid-beta precursor protein; test: Inhibition of amyloid beta1-42 (unknown origin) aggregation assessed as reduction in large aggregates at 400 uM after 20 mins and 2 hrs by size exclusion chromatography test
[6] = molecular target: T1, Amyloid-beta precursor protein; test: Inhibition of amyloid beta1-40 (unknown origin) aggregation

T1 sequence (P05067 whole entry): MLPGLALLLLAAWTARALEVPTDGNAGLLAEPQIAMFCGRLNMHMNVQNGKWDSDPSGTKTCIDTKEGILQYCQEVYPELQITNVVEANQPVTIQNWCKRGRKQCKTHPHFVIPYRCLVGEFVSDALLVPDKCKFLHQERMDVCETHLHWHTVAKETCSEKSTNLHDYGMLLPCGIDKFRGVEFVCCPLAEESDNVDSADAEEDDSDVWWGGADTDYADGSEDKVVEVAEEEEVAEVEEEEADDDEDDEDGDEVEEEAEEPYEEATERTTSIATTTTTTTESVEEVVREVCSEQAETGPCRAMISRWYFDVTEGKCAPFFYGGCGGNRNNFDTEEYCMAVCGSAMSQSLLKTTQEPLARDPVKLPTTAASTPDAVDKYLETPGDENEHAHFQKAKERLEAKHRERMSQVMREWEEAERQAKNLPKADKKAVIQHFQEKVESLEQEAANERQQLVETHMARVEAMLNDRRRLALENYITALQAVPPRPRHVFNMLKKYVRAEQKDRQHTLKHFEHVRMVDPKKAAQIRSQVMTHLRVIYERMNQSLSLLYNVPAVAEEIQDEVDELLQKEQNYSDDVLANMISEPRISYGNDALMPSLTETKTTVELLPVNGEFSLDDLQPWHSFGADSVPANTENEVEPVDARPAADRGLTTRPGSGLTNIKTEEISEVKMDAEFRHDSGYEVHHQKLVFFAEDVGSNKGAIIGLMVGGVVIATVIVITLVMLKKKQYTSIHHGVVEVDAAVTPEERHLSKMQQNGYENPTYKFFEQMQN

Compound	Activity [1] [%]	inhibition of amyloid fibril formation (active/inactive) [2]	IC50 [3] [µM]	inhibition [4]	Activity [5]	IC50 [6] [µM]
COc1c(-c2ccc(O)c(O)c2)oc2c(O)c(O)ccc2c1=O	21	Active	5.4	Active	Active	–
O=C(O[C@@H]1Cc2c(O)cc(O)cc2O[C@@H]1c1cc(O)c(O)c(O)c1)c1cc(O)c(O)c(O)c1 [EPIGALOCATECHIN GALLATE]	16	Active	4.6	–	–	3
O=c1cc(-c2ccc(O)c(O)c2)oc2cc(O)cc(O)c12 [LUTEOLIN]	14.4	Active	6.4	–	–	–
O=C1/C(=C/c2ccc(O)c(O)c2)Oc2c1ccc(O)c2O	18.5	Active	2.7	–	–	–
